Experimental data as given in patent publication US12403121B2, “Anticancer rocaglamide derivatives” (priority 2018, dated 2025).
Like-named read-outs stand apart in the source and are kept apart here.

Columns and labels:
[1] = test system: ST8814 NF1−/− MPNST cells; test: 3-day resazurin cell proliferation assay, ST8814 MPNST cells; assay type: cell-based, human; conditions: read-out: IC50 (nM) ST8814 NF1−/− MPNST cells
Description: (§1) The human MPNST cell lines, ST8814, STS26T, S462, T265, and luciferase-expressing ST8814-Luc, the human NF2-deficient meningioma cell line Ben-Men-1, the NJ2 mouse schwannoma cell line Sch10545, and primary human Schwann cells were propagated as previously described. Oblinger et al., Neuro-Oncol., 18:1265-1277 (2016). The Ewing sarcoma cell line A673 and the osteosarcoma cell lines, 143B and MG-63, were grown in Dulbecco's Modified Eagle's (DME) medium (Millipore-Sigma) supplemented with 10% fetal bovine serum (FBS; Atlanta Biological). The silvestrol-sensitive 697 and silvestrol-resistant 697-R pre-B acute lymphoblastic leukemia cells (Gupta et al., AAPS J., 13:357-364 (2011)), the Ewing sarcoma cell line TC32, the osteosarcoma cell lines, Saos2 and OS17, and the rhabdomyosarcoma cell line RD were cultivated in RPMI 1640 medium (Millipore-Sigma) plus 10% FBS.
(§2) Actively-growing cells were seeded in 96-well plates (Sarstedt) at 2,000 cells/well for Ben-Men-1 and RD cells, 30,000 cells/well for 697 and 697-R cells, and 4,000 cells/well for all other cell lines. The following day, cells were treated with various concentrations of each compound or and 0.05% of DMSO as the control for six days for MG-63 cells or three days for all remaining cell lines. Cell proliferation was assessed using resazurin assays and the IC50 value calculated. Cell cycle analysis was performed accordingly. Burns et al., Cancer Res., 73:792-803 (2013).
(§3) To search for compounds with better drug-like properties, the inventors conducted a side-by-side comparison of ten rocaglates lacking the dioxanyl ring with silvestrol for growth-inhibitory activity in a panel of MPNST, schwannoma, and meningioma cell lines, which they had previously shown to be sensitive to the antiproliferative action of silvestrol. […] The average IC50 value of each rocaglate was determined by 3-day resazurin proliferation assays. […] Further structure and activity comparison discerned some positions on the cyclopenta[b]benzofuran scaffold that affected the antiproliferative activity of rocaglates.

[2] = test system: Sch10545 Nf2−/− schwannoma cells; test: 3-day resazurin cell proliferation assay, Sch10545 schwannoma cells; assay type: cell-based, mouse; conditions: read-out: IC50 (nM) Sch10545 Nf2−/− schwannoma cells
Description: as §1, §2, §3

[3] = test system: Ben-Men-1 NF2−/− meningioma cells; test: 3-day resazurin cell proliferation assay, Ben-Men-1 meningioma cells; assay type: cell-based, human; conditions: read-out: IC50 (nM) Ben-Men-1 NF2−/− meningioma cells
Description: as §1, §2, §3

[4] = test system: STS26T NF1+/+ MPNST cells; test: 3-day resazurin cell proliferation assay, STS26T MPNST cells; assay type: cell-based, human; conditions: read-out: IC50 (nM) STS26T NF1+/+ MPNST cells
Description: as §1, §2, §3

[5] = test system: STS26T cells; test: Western blots of treated MPNST cells; assay type: cell-based, human; conditions: 1 or 2 IC50
Description: FIGS. 2A and 2B provide images showing that DDR and Roc increase caspase and PARP cleavage and elevated the levels of γH2AX while decreasing the expression of AKT and ERKs in MPNST cells. (A) Protein lysates prepared from STS26T cells treated for 3 days with 1 or 2 IC50 of DDR or Roc were analyzed by Western blots for the expression of various apoptosis-related proteins and mitogenic kinases AKT and ERK1/2. GAPDH served as a loading control. (B) Western blot analysis was performed on lysates from STS26T cells treated for 1 and 2 days with 1 or 2 IC50 of DDR for the expression of the DNA-damage response biomarker phosphorylated H2A.X (γH2A.X). As a positive control, lysates from HMS-97 human malignant schwannoma cells irradiated with 4 Grays (Gy) of X-ray were used.
(§4) Subconfluent cells were treated with the indicated doses of Roc or DDR for 24-72 hours and then harvested in cell lysis buffer (Cell Signaling Technology) containing 1 mM phenylmethylsufonylfluoride and protease inhibitor cocktail (Sigma-Aldrich). The protein content in cleared lysates was quantitated using the microBCA assay (ThermoFisher). Equal amounts of protein were run in sodium dodecyl sulfate-polyacrylamide gels and electrotransferred onto Immobilon-FL PVDF membranes (Millipore). The antibodies used were directed against: MDR1/ABCB1 (#13978), insulin-like growth factor-1 receptor β subunit (IGF-1Rβ; #9750), AKT (#9272), ERK1/2 (#4695), glyceraldehyde-3-phosphate dehydrogenase (GAPDH; #5174), caspase-3 (#9662), caspase-7 (#9492), cleaved caspase-7 (#9491), poly(ADP-ribose) polymerase (PARP; #9532), cleaved PARP (#5625), and phospho-histone H2A.X (pH2A.X[Ser′^39]; #9718; all from Cell Signaling Technology), NKX2.2 (sc-514161), LSD1 (sc-136174), and survivin (sc-17779; Santa Cruz Biotechnology), and FLI1 (ab15289) and cleaved caspase-3 (CC3; ab32042; Abeam). Protein bands were detected using IRDye® infrared fluorescent dye-labeled secondary antibodies and scanning on an Odyssey CLx imaging system (LI-COR Biosciences) using the appropriate fluorescent channel at a resolution of 84 μm.
To confirm induction of apoptosis in rocaglamide-treated MPNST cells, the inventors analyzed protein expression of several markers important for this process. […] A concomitant decrease in the amounts of intact caspases 3 and 7 and PARP was observed, consistent with the enhanced cleavage of these apoptotic markers and possibly due to direct effects of these rocaglamides on protein translation. Likewise, the levels of the pro-survival kinases AKT and ERK1/2 were diminished in rocaglamide-treated MPNST cells.

[6] = test system: TC32 Ewing sarcoma, 143B osteosarcoma, and RD rhabdomyosarcoma cells; test: Western blots of treated sarcoma cells; assay type: cell-based
Description: FIGS. 7A-7C provide images showing DDR and Roc reduce multiple signaling proteins important for the growth and survival of sarcoma cells. Lysates prepared from TC32 Ewing sarcoma (A), 143B osteosarcoma (B), and RD rhabdomyosarcoma (C) cells were treated 1 and 2 days with the indicated concentrations of DDR or Roc and analyzed by Western blotting for the expression of various oncogenic driver proteins. GAPDH was used as a loading control.
as §4
To further examine the molecular mechanisms underlying the antiproliferative effects of rocaglamides, the inventors treated TC32 Ewing sarcoma, 143B osteosarcoma, and RD rhabdomyosarcoma cells with 1- or 2-IC50 dose of DDR or rocaglamide for 1-2 days followed by Western blotting for several known drivers of cell survival and proliferation. […] They also observed reduction of the IGF-1Rβ levels in rocaglamide-treated MPNST cells. In addition, Roc and DDR decreased the levels of AKT, ERKs, cyclin D1 and survivin in treated TC32, 143B, and RD cells (FIG. 7). Intriguingly, the oncogenic fusion protein EWS-FLI1, which acts as an aberrant transcription factor in Ewing sarcoma, was not affected in Roc- and DDR-treated TC32 Ewing sarcoma cells (FIG. 7A). […] However, the expression of lysine demethylase 1 (LSD1), which modulates EWS-FLI1 transcriptional activity (Sankar et al., Oncogene, 32:5089-5100 (2013)), and NKX2.2, an EWS-FL11-regulated gene necessary for oncogenic transformation (Smith et al., Cancer Cell, 9:405-416 (2006)), were diminished by these rocaglamides in TC32 cells (FIG. 7A).

[7] = test system: A673, TC32, 143B, MG-63, Saos2, OS17 and RD sarcoma cell lines; test: Cell proliferation in Ewing sarcoma, osteosarcoma and rhabdomyosarcoma cell lines; assay type: cell-based
Description: as §1, §2
Since MPNSTs comprise only ˜2% of all sarcomas (Farid et al. Oncologist, 19:193-201 (2014)), the inventors expanded their testing of Roc and DDR to three other more prevalent sarcomas particularly in children and young adults: Ewing sarcoma, osteosarcoma, and rhabdomyosarcoma.

[8] = test system: STS26T and ST8814 MPNST cells; test: Flow cytometry cell cycle analysis; assay type: cell-based, human; conditions: one- or two-IC50 doses, three days
Description: as §2

[9] = test system: panel of MPNST, schwannoma, and meningioma cell lines; test: Side-by-side growth inhibition comparison with silvestrol in a cell line panel; assay type: cell-based; conditions: all cell lines tested
Description: as §2, §3

[10] = 3-day resazurin proliferation assay, average IC50

SMILES	IC50 [1, 10] [nM]	IC50 [2, 10] [nM]	IC50 [3, 10] [nM]	IC50 [4, 10] [nM]	also measured
COc1cc(OC)c2c(c1)OC1(c3ccc4c(c3)OCO4)C(c3ccccc3)CC(O)C21O (centres unmarked) [4′-demethoxy-3′,4′-methylenedioxyrocaglaol]	120	65	85	55	–
COc1cc(OC)c2c(c1)OC1(c3ccc4c(c3)OCO4)C(c3ccccc3)CC(O)C21OC (centres unmarked) [8b-O-methyl-4′-demethoxy-3′,4′-methylenedioxyrocaglaol]	10000	> 2500	> 2500	5000	–
COc1ccc([C@@]23Oc4cc(OC)cc(OC)c4[C@]2(OC)[C@H](O)C[C@H]3c2ccccc2)cc1 [8b-O-methylrocaglaol]	> 20000	> 20000	> 20000	> 20000	–
COc1ccc([C@@]23Oc4cc(OC)cc(OC)c4[C@]2(O)[C@H](O)[C@H](C(N)=O)[C@H]3c2ccccc2)cc1 [Didesmethylrocaglamide]	–	–	–	–	IC50 ([1]; Homo sapiens, ST88-14, 72 h): 5 nM; levels of γH2AX ([5]; STS26T MPNST cells): elevated; cleavage of caspases 3 and 7 and PARP ([5]; STS26T cells, 3 days): increased cleavage; expression of AKT and ERKs ([5]; STS26T cells, 3 days): decreasing; levels of the β subunit of IGF-1R ([6]; 1- or 2-IC50 dose, 1-2 days, all three sarcoma cell lines): reliably reduced; levels of AKT, ERKs, cyclin D1 and survivin ([6]; TC32, 143B, and RD cells, 1- or 2-IC50 dose, 1-2 days): decreased; EWS-FLI1 fusion protein level ([6]; TC32 Ewing sarcoma cells): not affected; expression of LSD1 and NKX2.2 ([6]; TC32 cells): diminished; IC50 ([2]; Mus musculus, 72 h): 10 nM; IC50 values of DDR compared with Roc ([7]; every sarcoma cell line tested): lower IC5O values than Roc; activity against sarcoma cell lines ([7]; two Ewing sarcoma, four osteosarcoma, one rhabdomyosarcoma cell lines): highly active; G2/M fraction [8]: marked increase in the GVM fraction; IC50 ([3]; Homo sapiens, 72 h): 5 nM; potency relative to silvestrol [9]: ~2 fold; IC50 ([4]; Homo sapiens, STS-26T, 72 h): 5 nM
COC(=O)C1C(O)C2(O)c3c(OC)cc(OC)cc3OC2(c2ccc3c(c2)OCO3)C1c1ccccc1 (centres unmarked) [Methyl 4′-demethoxy-3′,4′-methylenedioxyrocaglate]	70	60	80	35	–
COC(=O)C1C(O)C2(OC)c3c(OC)cc(OC)cc3OC2(c2ccc3c(c2)OCO3)C1c1ccccc1 (centres unmarked) [Methyl 8b-O-methyl-4′-demethoxy-3′,4′-methylenedioxyrocaglate]	2000	1900	3800	1300	–
COC(=O)C1C(O)C2(OC)c3c(OC)cc(OC)cc3OC2(c2ccc(OC)cc2)C1c1ccccc1 (centres unmarked) [Methyl 8b-O-methylrocaglate]	> 20000	9300	> 10000	≥ 10000	–
COC(=O)[C@H]1[C@@H](O)[C@@]2(O)c3c(OC)cc(OC)cc3O[C@@]2(c2ccc(OC)cc2)[C@@H]1c1ccccc1 [Methyl rocaglate]	35	50	55	25	–
COc1ccc([C@@]23Oc4cc(OC)cc(OC)c4[C@]2(O)[C@H](O)C[C@H]3c2ccccc2)cc1 [Rocaglaol]	–	–	–	–	IC50 ([1]; Homo sapiens, ST88-14, 72 h, 3-day resazurin proliferation assay, average IC50): 90 nM; IC50 ([2]; Mus musculus, 72 h, 3-day resazurin proliferation assay, average IC50): 60 nM; IC50 ([3]; Homo sapiens, 72 h, 3-day resazurin proliferation assay, average IC50): 100 nM; IC50 ([4]; Homo sapiens, STS-26T, 72 h, 3-day resazurin proliferation assay, average IC50): 40 nM
